The source of these data is patent US20110190162A1, “METHOD OF NUCLEIC ACID DELIVERY INTO THREE-DIMENSIONAL CELL CULTURE ARRAYS” (priority 2009, published 2011).

Data set [1] deals with parent HepG2 cells (control). The data set is described as follows: Acetaminophen toxicity, cell viability. The conditions noted are these: Homo sapiens, 24 h exposure, read-out: calculated IC50 (cell viability). In kind it is cell-based.
Data set [2] in a line: Metabolism-induced toxicity assay, cell viability. In kind it is cell-based. The conditions noted are these: human, HepG2 cells infected with Ad-3A4 (expressing CYP3A4); HepG2 transfected with Ad-3A4 at 40 MOI, 24 h exposure; read-out: calculated IC50 (cell viability). The method, then:
Metabolism-induced toxicity assay was performed with acetaminophen on HepG2 cells expressing CYP3A4. After transfecting HepG2 cells with Ad-3A4 at 40 MOI, HepG2 cells were exposed to acetaminophen at varying concentrations for 24 h. HepG2 cell viability decreased as acetaminophen concentration increased.

The IC50 is the concentration needed to halve the response being measured.

For `CC(=O)Nc1ccc(O)cc1` [acetaminophen], in data set [1], the 50% inhibitory concentration (IC50) was 17.5 mM. Besides, the IC50 at 24 h in data set [2] is 7.3 mM.
